Test [1] has as its target Metallo-beta-lactamase type 2 (Klebsiella pneumoniae, UniProt C7C422).
In test [2] the target is Metallo-beta-lactamase VIM-1 (Pseudomonas aeruginosa, UniProt A0A0F7KYQ8).

Chain of Metallo-beta-lactamase type 2 (C7C422 whole entry): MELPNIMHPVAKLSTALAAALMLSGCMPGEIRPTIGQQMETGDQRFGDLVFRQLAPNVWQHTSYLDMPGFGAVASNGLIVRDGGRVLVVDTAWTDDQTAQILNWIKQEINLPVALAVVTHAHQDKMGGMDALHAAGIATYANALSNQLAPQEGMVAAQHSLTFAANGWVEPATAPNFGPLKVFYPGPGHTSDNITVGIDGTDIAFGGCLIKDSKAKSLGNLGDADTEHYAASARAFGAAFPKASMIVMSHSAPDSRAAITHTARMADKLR

On to `COc1ccc(CN(Cc2ccc(OC)cc2)S(=O)(=O)c2c(S(=O)(=O)N[C@@H]3CCN(C(=O)OC(C)(C)C)C3)ccc(I)c2-c2nnn(Cc3ccc(OC)cc3)n2)cc1` [US10544130, Example 72], for which the IC50 in test [1] is 20 pM. That is a picomolar value. On the same count and under the same terms, under `COc1ccc(CN(Cc2ccc(OC)cc2)S(=O)(=O)c2c(S(=O)(=O)N[C@H]3CN(C(=O)OC(C)(C)C)C[C@@H]3NC(=O)OC(C)(C)C)ccc(I)c2-c2nnn(Cc3ccc(OC)cc3)n2)cc1` [US10544130, Example 82] stands 49 pM.

`COc1ccc(CN(Cc2ccc(OC)cc2)S(=O)(=O)c2c(S(=O)(=O)NC[C@@H](CNC(=O)OC(C)(C)C)NC(=O)OC(C)(C)C)ccc(I)c2-c2nnn(Cc3ccc(OC)cc3)n2)cc1` [US10544130, Example 81]: the IC50 in test [2] was found to be 135 pM. On to `N#Cc1cccc(B(O)O)c1N` [US10544130, Example 11], for which the results for the IC50 in test [2] and in test [1] were 50 pM and 19 pM, respectively.

In turn, `OB(O)c1cccc2[nH]cnc12` [US10544130, Example 12] showed an IC50 in test [2] of 102 pM. For `Nc1ncccc1-c1ccc(S(=O)(=O)N[C@H]2C[C@@H]2N)c(S(N)(=O)=O)c1-c1nn[nH]n1` [US10544130, Example 216], the IC50 in test [2] came to 269 pM; in test [1], 237 pM. In the case of `COc1ccc(CN(Cc2ccc(OC)cc2)S(=O)(=O)c2c(S(=O)(=O)NC[C@H](CO)NC(=O)OCc3ccccc3)ccc(I)c2-c2nnn(Cc3ccc(OC)cc3)n2)cc1` [US10544130, Example 80], the IC50 in test [2] came out at 158 pM. In test [1], `C[N+]1(CCN)CC[C@@H](NS(=O)(=O)c2ccc(-c3cccc4[nH]c(N)nc34)c(-c3nn[nH]n3)c2S(N)(=O)=O)C1` (stereo not given in full) [US10544130, Example 248] gave an IC50 of 11 pM. This counts as picomolar.

Values taken from BindingDB's records for patent US10544130 (Merck Sharp & Dohme Corp., 2020).
